Assay results taken from the supplement of paper PMC10883282.
± gives the standard deviation of the averaged measurements.

Tests used:
Test in all cases: relative viability vs DMSO control (72 h) (fraction); higher = more viable cells
A204 = tested on: A204
Outline: (§1)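 Sarcoma cell lines were seeded in 384-well plates at densities set to reach 80–90% confluence. After 24 h, 2.5 µl of serially diluted compound was added (source plates 10 mM to 0.0002 mM), and plates were held 72 h at 37 °C, 5% CO2, with 0.1% DMSO vehicle and a 5 µM positive control. Relative viability came from ATPLite readings as percent growth, averaged over up to triplicate wells. Data were rescaled so full viability equals 1 and none equals 0.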

G401 = tested on: G401
Outline: as §1

HS729 = tested on: HS729
Outline: as §1

KHOS-240S = tested on: KHOS-240S
Outline: as §1

MES-SA = tested on: MES-SA
Outline: as §1

SK-ES-1 = tested on: SK-ES-1
Outline: as §1

SK-LMS-1 = tested on: SK-LMS-1
Outline: as §1

SW1353 = tested on: SW1353
Outline: as §1

SW684 = tested on: SW684
Outline: as §1

SW872 = tested on: SW872
Outline: as §1

SW982 = tested on: SW982
Outline: as §1

SYO-1 = tested on: SYO-1
Outline: as §1

## C#Cc1cccc(Nc2ncnc3cc4c(cc23)OCCOCCOCCO4)c1 [Icotinib]
A204; 0.00017 µM
  relative viability: 1.07 ± 0.086
A204; 0.00051 µM
  relative viability: 1.08 ± 0.035
A204; 0.00152 µM
  relative viability: 1.11 ± 0.051
A204; 0.00457 µM
  relative viability: 1.13 ± 0.024
A204; 0.01372 µM
  relative viability: 1.071 ± 0.0034
A204; 0.04115 µM
  relative viability: 1.12 ± 0.038
A204; 0.1235 µM
  relative viability: 1.09 ± 0.078
A204; 0.3704 µM
  relative viability: 1.07 ± 0.063
A204; 1.111 µM
  relative viability: 0.967 ± 0.024
A204; 3.333 µM
  relative viability: 0.947 ± 0.039
A204; 10 µM
  relative viability: 0.877 ± 0.047
G401; 0.00017 µM
  relative viability: 1.04 ± 0.026
G401; 0.00051 µM
  relative viability: 1.05 ± 0.014
G401; 0.00152 µM
  relative viability: 1.04 ± 0.015
G401; 0.00457 µM
  relative viability: 1.06 ± 0.024
G401; 0.01372 µM
  relative viability: 1.05 ± 0.02
G401; 0.04115 µM
  relative viability: 1.05 ± 0.04
G401; 0.1235 µM
  relative viability: 1.02 ± 0.012
G401; 0.3704 µM
  relative viability: 1.04 ± 0.03
G401; 1.111 µM
  relative viability: 1.06 ± 0.019
G401; 3.333 µM
  relative viability: 1.03 ± 0.028
G401; 10 µM
  relative viability: 1.02 ± 0.046
HS729; 0.00017 µM
  relative viability: 1.08 ± 0.04
HS729; 0.00051 µM
  relative viability: 1.091 ± 0.003
HS729; 0.00152 µM
  relative viability: 1.01 ± 0.041
HS729; 0.00457 µM
  relative viability: 1 ± 0.043
HS729; 0.01372 µM
  relative viability: 0.99 ± 0.05
HS729; 0.04115 µM
  relative viability: 0.99 ± 0.077
HS729; 0.1235 µM
  relative viability: 0.97 ± 0.016
HS729; 0.3704 µM
  relative viability: 0.971 ± 0.039
HS729; 1.111 µM
  relative viability: 0.957 ± 0.05
HS729; 3.333 µM
  relative viability: 0.892 ± 0.022
HS729; 10 µM
  relative viability: 0.8227 ± 0.0041
KHOS-240S; 0.00017 µM
  relative viability: 1.07 ± 0.054
KHOS-240S; 0.00051 µM
  relative viability: 1.1 ± 0.07
KHOS-240S; 0.00152 µM
  relative viability: 1.1 ± 0.064
KHOS-240S; 0.00457 µM
  relative viability: 1.1 ± 0.067
KHOS-240S; 0.01372 µM
  relative viability: 1.1 ± 0.058
KHOS-240S; 0.04115 µM
  relative viability: 1.09 ± 0.034
KHOS-240S; 0.1235 µM
  relative viability: 1.1 ± 0.048
KHOS-240S; 0.3704 µM
  relative viability: 1.09 ± 0.054
KHOS-240S; 1.111 µM
  relative viability: 1.09 ± 0.064
KHOS-240S; 3.333 µM
  relative viability: 1.04 ± 0.062
KHOS-240S; 10 µM
  relative viability: 1.03 ± 0.092
MES-SA; 0.00017 µM
  relative viability: 0.972 ± 0.021
MES-SA; 0.00051 µM
  relative viability: 0.945 ± 0.032
MES-SA; 0.00152 µM
  relative viability: 0.958 ± 0.014
MES-SA; 0.00457 µM
  relative viability: 0.937 ± 0.05
MES-SA; 0.01372 µM
  relative viability: 0.936 ± 0.02
MES-SA; 0.04115 µM
  relative viability: 0.952 ± 0.033
MES-SA; 0.1235 µM
  relative viability: 0.952 ± 0.024
MES-SA; 0.3704 µM
  relative viability: 0.922 ± 0.024
MES-SA; 1.111 µM
  relative viability: 0.912 ± 0.027
MES-SA; 3.333 µM
  relative viability: 0.869 ± 0.036
MES-SA; 10 µM
  relative viability: 0.8 ± 0.038
SK-ES-1; 0.00017 µM
  relative viability: 1.03 ± 0.024
SK-ES-1; 0.00051 µM
  relative viability: 1.06 ± 0.028
SK-ES-1; 0.00152 µM
  relative viability: 1.06 ± 0.024
SK-ES-1; 0.00457 µM
  relative viability: 1.01 ± 0.077
SK-ES-1; 0.01372 µM
  relative viability: 1.073 ± 0.0071
SK-ES-1; 0.04115 µM
  relative viability: 1.08 ± 0.026
SK-ES-1; 0.1235 µM
  relative viability: 1.068 ± 0.0031
SK-ES-1; 0.3704 µM
  relative viability: 1.07 ± 0.018
SK-ES-1; 1.111 µM
  relative viability: 0.998 ± 0.035
SK-ES-1; 3.333 µM
  relative viability: 1.01 ± 0.018
SK-ES-1; 10 µM
  relative viability: 0.934 ± 0.032
SK-LMS-1; 0.00017 µM
  relative viability: 1.08 ± 0.014
SK-LMS-1; 0.00051 µM
  relative viability: 1.05 ± 0.044
SK-LMS-1; 0.00152 µM
  relative viability: 1.07 ± 0.012
SK-LMS-1; 0.00457 µM
  relative viability: 1.07 ± 0.032
SK-LMS-1; 0.01372 µM
  relative viability: 1.07 ± 0.024
SK-LMS-1; 0.04115 µM
  relative viability: 1.06 ± 0.075
SK-LMS-1; 0.1235 µM
  relative viability: 1.04 ± 0.049
SK-LMS-1; 0.3704 µM
  relative viability: 1.09 ± 0.081
SK-LMS-1; 1.111 µM
  relative viability: 1.05 ± 0.051
SK-LMS-1; 3.333 µM
  relative viability: 1.033 ± 0.0072
SK-LMS-1; 10 µM
  relative viability: 0.998 ± 0.076
SW1353; 0.00017 µM
  relative viability: 1.06 ± 0.025
SW1353; 0.00051 µM
  relative viability: 1.04 ± 0.016
SW1353; 0.00152 µM
  relative viability: 1.03 ± 0.019
SW1353; 0.00457 µM
  relative viability: 1.07 ± 0.044
SW1353; 0.01372 µM
  relative viability: 1.045 ± 0.0071
SW1353; 0.04115 µM
  relative viability: 1.01 ± 0.043
SW1353; 0.1235 µM
  relative viability: 1.01 ± 0.038
SW1353; 0.3704 µM
  relative viability: 0.976 ± 0.022
SW1353; 1.111 µM
  relative viability: 0.952 ± 0.015
SW1353; 3.333 µM
  relative viability: 0.914 ± 0.031
SW1353; 10 µM
  relative viability: 0.847 ± 0.033
SW684; 0.00017 µM
  relative viability: 1.172 ± 0.0059
SW684; 0.00051 µM
  relative viability: 1.18 ± 0.053
SW684; 0.00152 µM
  relative viability: 1.2 ± 0.04
SW684; 0.00457 µM
  relative viability: 1.19 ± 0.052
SW684; 0.01372 µM
  relative viability: 1.2 ± 0.064
SW684; 0.04115 µM
  relative viability: 1.18 ± 0.031
SW684; 0.1235 µM
  relative viability: 1.18 ± 0.091
SW684; 0.3704 µM
  relative viability: 1.18 ± 0.066
SW684; 1.111 µM
  relative viability: 1.17 ± 0.043
SW684; 3.333 µM
  relative viability: 1.16 ± 0.026
SW684; 10 µM
  relative viability: 1.13 ± 0.05
SW872; 0.00017 µM
  relative viability: 1.14 ± 0.058
SW872; 0.00051 µM
  relative viability: 1.14 ± 0.041
SW872; 0.00152 µM
  relative viability: 1.11 ± 0.046
SW872; 0.00457 µM
  relative viability: 1.108 ± 0.011
SW872; 0.01372 µM
  relative viability: 1.11 ± 0.059
SW872; 0.04115 µM
  relative viability: 1.09 ± 0.059
SW872; 0.1235 µM
  relative viability: 1.08 ± 0.067
SW872; 0.3704 µM
  relative viability: 1.07 ± 0.047
SW872; 1.111 µM
  relative viability: 1.06 ± 0.041
SW872; 3.333 µM
  relative viability: 1.04 ± 0.06
SW872; 10 µM
  relative viability: 1.03 ± 0.064
SW982; 0.00017 µM
  relative viability: 1.01 ± 0.022
SW982; 0.00051 µM
  relative viability: 1.03 ± 0.021
SW982; 0.00152 µM
  relative viability: 1.04 ± 0.015
SW982; 0.00457 µM
  relative viability: 1.03 ± 0.025
SW982; 0.01372 µM
  relative viability: 1.049 ± 0.0053
SW982; 0.04115 µM
  relative viability: 1.06 ± 0.032
SW982; 0.1235 µM
  relative viability: 1.06 ± 0.025
SW982; 0.3704 µM
  relative viability: 1.05 ± 0.043
SW982; 1.111 µM
  relative viability: 0.999 ± 0.03
SW982; 3.333 µM
  relative viability: 0.9946 ± 0.0073
SW982; 10 µM
  relative viability: 0.977 ± 0.046
SYO-1; 0.00017 µM
  relative viability: 1.01 ± 0.062
SYO-1; 0.00051 µM
  relative viability: 1.03 ± 0.05
SYO-1; 0.00152 µM
  relative viability: 1.01 ± 0.015
SYO-1; 0.00457 µM
  relative viability: 0.968 ± 0.048
SYO-1; 0.01372 µM
  relative viability: 0.989 ± 0.031
SYO-1; 0.04115 µM
  relative viability: 0.979 ± 0.03
SYO-1; 0.1235 µM
  relative viability: 0.982 ± 0.013
SYO-1; 0.3704 µM
  relative viability: 0.98 ± 0.031
SYO-1; 1.111 µM
  relative viability: 0.966 ± 0.041
SYO-1; 3.333 µM
  relative viability: 0.892 ± 0.07
SYO-1; 10 µM
  relative viability: 0.855 ± 0.021
